Reference: ChEMBL document CHEMBL2380286, “Synthesis, characterization and anti-tumor activity of novel thymoquinone analogs against pancreatic cancer” (2013)
The source made the active and inactive calls. The rule behind the calls is not given here.

What was measured:
[1] = test system: BXPC-3; test: Cytotoxicity against human BxPC3 cells at 10 uM after 72 hrs by MTT assay; assay type: functional, cell-based
[2] = test system: MIA PaCa-2; test: Chemo-sensitizing activity in human MIAPaCa2 cells assessed as potentiation of gemcitabine-induced cytotoxicity at 2.5 uM after 72 hrs by MTT assay; assay type: functional, cell-based
[3] = test system: MIA PaCa-2; test: Induction of apoptosis in human MIAPaCa2 cells at 10 uM after 72 hrs by Histone DNA ELISA; assay type: functional, cell-based
[4] = test system: MIA PaCa-2; test: Cytotoxicity against human MIAPaCa2 cells at 0.5 uM after 72 hrs by MTT assay; assay type: functional
[5] = test system: MIA PaCa-2; test: Cytotoxicity against human MIAPaCa2 cells at 5 to 25 uM after 72 hrs by MTT assay; assay type: functional, cell-based

For CC1=C(N)C(=O)C(C(C)C)=CC1=O, the Activity [1] was “Active”.
For CC1=C(/N=C/c2ccc(F)c(F)c2F)C(=O)C(C(C)C)=CC1=O, the Activity [1] was “Active”, the Activity [2] was “inactive” and the Activity [3] was “Active”.
In the case of Nc1ccn([C@@H]2O[C@H](CO)[C@@H](O)C2(F)F)c(=O)n1 [GEMCITABINE], the Activity [4] is reported as greater than 50%.
In the case of CC1=C(/N=C/c2ccc(O)c(O)c2O)C(=O)C(C(C)C)=CC1=O, the Activity [1] is reported as “Active”, the Activity [5] is reported as “Active” and the Activity [2] is reported as “Active”. For the same molecule, the Activity [3] was “Active”.
